Laboratory results from patent US6054435A, “6-O-substituted macrolides having antibacterial activity” (priority 1999, dated 2000).
Values after ≈ are worked out from the molar mass of the structure shown.

Legend:
Assay in all cases: in vitro antibacterial activity (MIC), agar dilution
Assay type in all cases: cell-based
[1] = system: Staphylococcus aureus A-5278; settings: organism code CC; BHI agar, 35-37° C., 20 to 24 hours; unit assumed
Description: (§1) Representative compounds of the present invention were assayed in vitro for antibacterial activity as follows: Twelve petri dishes containing successive aqueous dilutions of the test compound mixed with 10 mL of sterilized Brain Heart Infusion (BHI) agar (Difco 0418-01-5) were prepared. Each plate was inoculated with 1:100 (or 1:10 for slow-growing strains, such as Micrococcus and Streptococcus) dilutions of up to 32 different microorganisms, using a Steers replicator block. […] In addition, a control plate, using BHI agar containing no test compound, was prepared and incubated at the beginning and end of each test.
(§2) An additional plate containing a compound having known susceptibility patterns for the organisms being tested and belonging to the same antibiotic class as the test compound was also prepared and incubated as a further control, as well as to provide test-to-test comparability.
(§3) After incubation, each plate was visually inspected. The minimum inhibitory concentration (MIC) was defined as the lowest concentration of drug yielding no growth, a slight haze, or sparsely isolated colonies on the inoculum spot as compared to the growth control.

Escherichia coli SS = settings: organism code RR; BHI agar, 35-37° C., 20 to 24 hours; unit assumed
Description: as §1, §2, §3

[2] = system: Streptococcus bovis A-5169; settings: organism code JJ; BHI agar, 35-37° C., 20 to 24 hours; unit assumed
Description: as §1, §2, §3

[3] = system: Staphylococcus epidermidis 3519; settings: organism code HH; BHI agar, 35-37° C., 20 to 24 hours; unit assumed
Description: as §1, §2, §3

[4] = system: Streptococcus pyogenes PIU 2548; settings: organism code NN; BHI agar, 35-37° C., 20 to 24 hours; unit assumed
Description: as §1, §2, §3

[5] = system: Streptococcus Pneumonia 5979; settings: organism code ZZ; BHI agar, 35-37° C., 20 to 24 hours; unit assumed
Description: as §1, §2, §3

[6] = system: Micrococcus luteus ATCC 4698; settings: organism code PP; BHI agar, 35-37° C., 20 to 24 hours; unit assumed
Description: as §1, §2, §3

[7] = system: Mycobacterium smegmatis ATCC 114; settings: organism code UU; BHI agar, 35-37° C., 20 to 24 hours; unit assumed
Description: as §1, §2, §3

[8] = system: Streptococcus pyogenes 930; settings: organism code MM; BHI agar, 35-37° C., 20 to 24 hours; unit assumed
Description: as §1, §2, §3

[9] = system: Streptococcus agalactiae CMX 508; settings: organism code KK; BHI agar, 35-37° C., 20 to 24 hours; unit assumed
Description: as §1, §2, §3

Escherichia coli JUHL = settings: organism code QQ; BHI agar, 35-37° C., 20 to 24 hours; unit assumed
Description: as §1, §2, §3

[10] = system: Streptococcus Pneumonia ATCC6303; settings: organism code XX; BHI agar, 35-37° C., 20 to 24 hours; unit assumed
Description: as §1, §2, §3

[11] = system: Enterococcus faecium ATCC 8043; settings: organism code II; BHI agar, 35-37° C., 20 to 24 hours; unit assumed
Description: as §1, §2, §3

[12] = system: Nocardia Asteroides ATCC9970; settings: organism code VV; BHI agar, 35-37° C., 20 to 24 hours; unit assumed
Description: as §1, §2, §3

Candida albicans CCH 442 = settings: organism code TT; BHI agar, 35-37° C., 20 to 24 hours; unit assumed
Description: as §1, §2, §3

Escherichia coli DC-2 = settings: organism code SS; BHI agar, 35-37° C., 20 to 24 hours; unit assumed
Description: as §1, §2, §3

[13] = system: Staphylococcus aureus NCTC10649M; settings: organism code EE; BHI agar, 35-37° C., 20 to 24 hours; unit assumed
Description: as §1, §2, §3

[14] = system: Staphylococcus aureus CMX 642A; settings: organism code DD; BHI agar, 35-37° C., 20 to 24 hours; unit assumed
Description: as §1, §2, §3

[15] = system: Staphylococcus aureus ATCC 6538P; settings: organism code AA; BHI agar, 35-37° C., 20 to 24 hours; unit assumed
Description: as §1, §2, §3

[16] = system: Staphylococcus aureus CMX 553; settings: organism code FF; BHI agar, 35-37° C., 20 to 24 hours; unit assumed
Description: as §1, §2, §3

[17] = system: Staphylococcus aureus A5177; settings: organism code BB; BHI agar, 35-37° C., 20 to 24 hours; unit assumed
Description: as §1, §2, §3

[18] = system: Staphylococcus aureus 1775; settings: organism code GG; BHI agar, 35-37° C., 20 to 24 hours; unit assumed
Description: as §1, §2, §3

[19] = system: Streptococcus Pneumonia 5649; settings: organism code ZZA; BHI agar, 35-37° C., 20 to 24 hours; unit assumed
Description: as §1, §2, §3

[20] = system: Streptococcus pyogenes EES61; settings: organism code LL; BHI agar, 35-37° C., 20 to 24 hours; unit assumed
Description: as §1, §2, §3

[21] = system: Streptococcus Pneumonia GYR 1171; settings: organism code YY; BHI agar, 35-37° C., 20 to 24 hours; unit assumed
Description: as §1, §2, §3

[22] = system: Micrococcus luteus ATCC 9341; settings: organism code OO; BHI agar, 35-37° C., 20 to 24 hours; unit assumed
Description: as §1, §2, §3

[23] = system: Haemophilis Influenzae DILL AMP R; settings: organism code WW; BHI agar, 35-37° C., 20 to 24 hours; unit assumed
Description: as §1, §2, §3

| Structure (SMILES) | MIC [1] [µg/mL] | MIC (Escherichia coli SS) [µg/mL] | MIC [2] [µg/mL] | MIC [3] [µg/mL] | MIC [4] [µg/mL] | MIC [5] [µg/mL] | MIC [6] [µg/mL] | MIC [7] [µg/mL] | MIC [9] [µg/mL] | MIC (Escherichia coli JUHL) [µg/mL] | MIC [10] [µg/mL] | MIC [11] [µg/mL] | MIC [12] [µg/mL] | MIC (Candida albicans CCH 442) [µg/mL] | MIC (Escherichia coli DC-2) [µg/mL] | MIC [13] [µg/mL] | MIC [14] [µg/mL] | MIC [15] [µg/mL] | MIC [16] [µg/mL] | MIC [17] [µg/mL] | also measured |
| --- | --- | --- | --- | --- | --- | --- | --- | --- | --- | --- | --- | --- | --- | --- | --- | --- | --- | --- | --- | --- | --- |
| CC[C@H]1OC(=O)[C@H](C)C(=O)[C@H](C)[C@@H](O[C@@H]2O[C@H](C)C[C@H](N(C)C)[C@H]2O)[C@](C)(OC/C=C/c2cncc(-c3ccsc3)c2)C[C@@H](C)C(=O)[C@H](C)[C@H]2NC(=O)O[C@@]21C [Example 49] | > 100 | 0.39 (≈ 0.489 µM) | 0.02 (≈ 0.0251 µM) | 0.1 (≈ 0.125 µM) | 0.2 (≈ 0.251 µM) | 32 (≈ 40.1 µM) | 0.05 (≈ 0.0627 µM) | 0.39 (≈ 0.489 µM) | 0.02 (≈ 0.0251 µM) | 50 (≈ 62.7 µM) | ≤ 0.004 | 0.05 (≈ 0.0627 µM) | 0.05 (≈ 0.0627 µM) | > 100 | 50 (≈ 62.7 µM) | 0.1 (≈ 0.125 µM) | 0.1 (≈ 0.125 µM) | 0.1 (≈ 0.125 µM) | 0.05 (≈ 0.0627 µM) | 0.05 (≈ 0.0627 µM) | MIC [8]: 25 µg/mL (≈ 31.3 µM); MIC [18]: > 100 µg/mL; MIC [19]: 0.03 µg/mL (≈ 0.0376 µM); MIC [20]: 0.02 µg/mL (≈ 0.0251 µM); MIC [21]: ≤ 0.004 µg/mL; MIC [22]: 0.02 µg/mL (≈ 0.0251 µM) |
| CC[C@H]1OC(=O)[C@H](C)C(=O)[C@H](C)[C@@H](O[C@@H]2O[C@H](C)C[C@H](N(C)C)[C@H]2O)[C@](C)(OC/C=C/c2cnc(-c3ncc(Br)s3)s2)C[C@@H](C)C(=O)[C@H](C)[C@H]2NC(=O)O[C@@]21C [Example 56] | 100 (≈ 113 µM) | 0.78 (≈ 0.882 µM) | 0.05 (≈ 0.0566 µM) | 0.2 (≈ 0.226 µM) | 0.39 (≈ 0.441 µM) | 4 (≈ 4.53 µM) | 0.39 (≈ 0.441 µM) | 0.39 (≈ 0.441 µM) | 0.05 (≈ 0.0566 µM) | > 10 | 0.015 (≈ 0.017 µM) | 0.05 (≈ 0.0566 µM) | 0.39 (≈ 0.441 µM) | > 100 | > 100 | 0.39 (≈ 0.441 µM) | 0.2 (≈ 0.226 µM) | 0.2 (≈ 0.226 µM) | 0.2 (≈ 0.226 µM) | 0.2 (≈ 0.226 µM) | MIC [23]: 8 µg/mL (≈ 9.05 µM); MIC [18]: 50 µg/mL (≈ 56.6 µM); MIC [19]: 0.25 µg/mL (≈ 0.283 µM); MIC [20]: 0.05 µg/mL (≈ 0.0566 µM); MIC [21]: 0.015 µg/mL (≈ 0.017 µM); MIC [22]: 0.05 µg/mL (≈ 0.0566 µM) |
| CC[C@H]1OC(=O)[C@H](C)C(=O)[C@H](C)[C@@H](O[C@@H]2O[C@H](C)C[C@H](N(C)C)[C@H]2O)[C@](C)(OC/C=C/c2cncc(-c3cncc4ccccc34)c2)C[C@@H](C)C(=O)[C@H](C)[C@H]2NC(=O)O[C@@]21C [Example 48] | > 100 | 0.78 (≈ 0.925 µM) | 0.02 (≈ 0.0237 µM) | 0.2 (≈ 0.237 µM) | 0.2 (≈ 0.237 µM) | 16 (≈ 19 µM) | 0.1 (≈ 0.119 µM) | 0.78 (≈ 0.925 µM) | 0.02 (≈ 0.0237 µM) | > 100 | ≤ 0.004 | 0.05 (≈ 0.0593 µM) | 0.05 (≈ 0.0593 µM) | > 100 | > 100 | 0.2 (≈ 0.237 µM) | 0.2 (≈ 0.237 µM) | 0.2 (≈ 0.237 µM) | 0.2 (≈ 0.237 µM) | 0.2 (≈ 0.237 µM) | MIC [8]: 100 µg/mL (≈ 119 µM); MIC [18]: > 100 µg/mL; MIC [19]: 0.25 µg/mL (≈ 0.297 µM); MIC [20]: 0.05 µg/mL (≈ 0.0593 µM); MIC [21]: ≤ 0.004 µg/mL; MIC [22]: 0.05 µg/mL (≈ 0.0593 µM) |
